Tested on: 5xFAD mice
Test: Contextual and cued fear conditioning test
Assay type: in vivo, mouse
Settings: 10 mg/kg i.p. daily for 14 days
Method: To analyze the effect of C20 on the cognitive status of diseased mice, a contextual and cued fear conditioning test was performed in the 5xFAD mice. Two WT cohorts and two 5xFAD cohorts of eight mice each were intraperitoneally injected (every day for 14 days) with either C20 (10 mg/kg) or an equal amount of vehicle.
Six-month-old 5xFAD and WT mice were intraperitoneally injected with C20 (10 mg/kg b.w. dissolved in ethanol (13.5%) and diluted in 0.9% saline (86.5%)) or an equal volume of ethanol diluted in 0.9% saline (vehicle) once daily for 14 days. To analyze the effect of C20 on cognitive behavior, mice were subjected to hippocampus-dependent contextual fear conditioning and hippocampus independent tone fear conditioning (n = 8 mice in each group).
According to a 3-day delay fear conditioning protocol, the conditioned stimulus is presented and overlapped by the presentation of the unconditioned stimulus. The experiments were performed using a standard conditioning chamber (25 cm × 20 cm × 30 cm) with a stainless steel floor connected to an electric shock generator. The chamber was housed in a soundproof isolation cubicle. Measurements were accomplished through two cameras (Web camera FI#2.0 8mm и Webcam Logitech C200, Apples, Switzerland), connected to a computer with video freeze software (AUTO_URAI_4 developer Dr. V.V. Sizov, Institute of Experimental Medicine, Saint Petersburg, Russia, I.P. Pavlov Department of Physiology, sizoff@list.ru).
To exclude possible freezing due to the novel environment, we allowed the mice to habituate to the chamber. On day 1 (habituation), we brought mice into the habituation room and placed them into a training chamber individually for 5 min without any cue.
On day 2 (training), we placed each mouse in the conditioning chamber for 2 min without any shock or tone. Then, mice received two repetitions of a tone (500 Hz, 55 dB) that simultaneously ended with a 2 s foot shock (0.3 mA, US) with 60 s inter-trial intervals. Mice were allowed to recover after the foot-shock for an additional 60 s before being removed to their home cage.
On day 3 (testing), mice were placed back in the familiar fear conditioning chamber, but in the absence of tones and foot shocks. The freezing behavior was measured for 180 s to test contextual memory retrieval. For the tone fear retrieval trial one hour after the contextual test, mice were placed in an altered conditioning chamber with black and white striped walls, a covered floor, and a vanilla extract scent. After 180 s of baseline in an altered conditioning recording, a tone similar to the one used during the fear conditioning training was presented for 180 s. The freezing behavior before and during the tone was measured.

COc1cc2c(cc1OC)C(c1cc3ccccc3oc1=O)=NC(C)(C)C2 [C20, 3-(3-,4-Dihydro-6,7-dimethoxy-3,3-dimethyl-1-isoquinolinyl)-2H-1-benzopyran-2-one]
freezing time to context (6-month-old 5xFAD mice, 5xFAD + vehicle 33.88 ± 15.09%): 67.00 ± 17.78%
freezing time to tone (6-month-old 5xFAD mice, 5xFAD + vehicle 37.75 ± 8.25%): 63.50 ± 13.38%
freezing time to context (WT mice, WT + vehicle 58.25 ± 19.06%): 59.63 ± 17.53%
freezing time to tone (WT mice, WT + vehicle 69.25 ± 18.19%): 67.75 ± 7.56%

From PMC9653995, “New Positive TRPC6 Modulator Penetrates Blood–Brain Barrier, Eliminates Synaptic Deficiency and Restores Memory Deficit in 5xFAD Mice” (International Journal of Molecular Sciences, 2022)
